Emax and EC50 data for one compound are collected here from US9656962B2, “Ring-contracted morphinans and the use thereof” (Purdue Pharma L.P., priority 2013, dated 2017).

This assay deals with κ-opioid receptor (Homo sapiens (Human), UniProt P41145). The assay can be described thus: κ-opioid receptor [35S]GTPγS functional assay, HEK-293 or CHO cells (Table 4). The assay is classed as biochemical. In general terms: GTPγS is a poorly hydrolysed GTP analogue; its binding reports G protein activation.

The Emax is the greatest response seen or fitted, relative to the assay's reference. By EC50 is commonly meant the concentration needed to bring the measured effect to its halfway point. Low values mean higher potency in that assay, high ones lower potency in that assay.

Take `NC(=O)[C@@H]1C[C@]23CCN(CC4CC4)[C@H](Cc4ccc(O)cc42)[C@]3(O)C1` [Compound 31, (2R,3aS,4R,9bS)-12-(cyclopropylmethyl)-3a,8-dihydroxy-1,2,3,3a,4,5-hexahydro-4,9b-(epiminoethano)cyclopenta-[a]naphthalene-2-carboxamide]: the Emax (relative to U69,593) was 35.3 ± 2.19%. The same compound yielded an EC50 (κ GTP) of 6.95 ± 0.97 nM.
